Measurements reported in patent publication US6525001B1, “Substituted pyrimidine and pyridine herbicides” (Mid-American Commercialization Corporation, priority 1997, dated 2003).

Columns and labels:
Type in all cases: in vivo
[1] = system: bedstraw (Galium aparine); assay: Test B pre-/postemergence; set-up: key: 0 is no effect; 10 is complete control
Outline: (§1)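 Response scores run from 0, meaning no effect, to 10, meaning complete control, assigned by eye relative to controls twelve to sixteen days after spraying. Treatment was both preemergence on planted seed and postemergence on plants at the 1- to 4-leaf stage.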

[2] = system: broadleaf signalgrass (Brachiaria decumbens); assay: Test B pre-/postemergence; set-up: key: 0 is no effect; 10 is complete control
Outline: as §1

[3] = system: cocklebur (Xanthium strumarium); assay: Test B pre-/postemergence; set-up: key: 0 is no effect; 10 is complete control
Outline: as §1

corn (Zea mays) = assay: Test B pre-/postemergence; set-up: key: 0 is no effect; 10 is complete control
Outline: as §1

[4] = system: giant foxtail (Setaria faberii); assay: Test B pre-/postemergence; set-up: key: 0 is no effect; 10 is complete control
Outline: as §1

[5] = system: momingglory (Ipomoea hederacea); assay: Test B pre-/postemergence; set-up: key: 0 is no effect; 10 is complete control
Outline: as §1

[6] = system: pigweed (Amaranthus retroflexus); assay: Test B pre-/postemergence; set-up: key: 0 is no effect; 10 is complete control
Outline: as §1

rape (Brassica napus) = assay: Test B pre-/postemergence; set-up: key: 0 is no effect; 10 is complete control
Outline: as §1

[7] = system: sugar beet (Beta vulgaris); assay: Test B pre-/postemergence; set-up: key: 0 is no effect; 10 is complete control
Outline: as §1

[8] = system: velvetleaf (Abutilon theophrasti); assay: Test B pre-/postemergence; set-up: key: 0 is no effect; 10 is complete control
Outline: as §1

[9] = system: wheat (Triticum aestivum); assay: Test B pre-/postemergence; set-up: key: 0 is no effect; 10 is complete control
Outline: as §1

[10] = system: bamyardgrass (Echinochloa crus-galli); assay: Test B flood test; settings: for Plant response rating, Barnyardgrass: Postemergence (flood test species)
Outline: (§2)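 Each value is a visual injury score relative to controls, with 10 meaning complete control and 0 no effect. Evaluation took place twelve to sixteen days after the 2-leaf-stage plants were treated and kept in the greenhouse.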

[11] = system: duck salad (Heteranthera limosa); assay: Test B flood test; settings: for Plant response rating, Ducksalad: Postemergence (flood test species)
Outline: as §2

rice (Oryza sativa) = assay: Test B flood test; settings: for Plant response rating, Rice: Postemergence (flood test species)
Outline: as §2

[12] = system: smallflower flatsedge (Cyperus difformis); assay: Test B flood test; settings: for Plant response rating, S. Flatsedge: Postemergence (flood test species)
Outline: as §2

[13] = Preemergence, Rate 62 g/ha, scale of 0 to 10
[14] = Rate 62 g/ha, Postemergence (flood test)
[15] = Rate 125 g/ha, Postemergence section (flood test species)

`Cc1cnc(-c2ccc(C(F)(F)F)cc2)nc1C(=O)c1cccc(C(F)(F)F)c1` [Compound 73] was tested, and the “Plant response rating, Bedstraw” value [1, 13] was 2, the “Bedstraw plant response rating” value ([1]; Rate 62 g/ha, Postemergence) was 9 and the “Bedstraw plant response rating” value ([1]; Rate 125 g/ha, Postemergence) was 9. For the same compound, the “Plant response rating, Bedstraw” value ([1]; Rate 125 g/ha, Preemergence) was 8, the “Plant response rating, Bedstraw” value ([1]; Rate 250 g/ha, Postemergence) was 9 and the “Plant response rating, Bedstraw” value ([1]; Rate 250 g/ha, Preemergence) was 9. The “Plant response rating, Bedstraw” value ([1]; Rate 500 g/ha, Postemergence) was 9, the “Plant response rating, Bedstraw” value ([1]; Rate 500 g/ha, Preemergence) was 10 and the “B. signalgrass plant response rating” value ([2]; Rate 62 g/ha, Postemergence) was 8. For the same compound, the “B. signalgrass plant response rating” value ([2]; Rate 62 g/ha, Preemergence) was 9, the “B. signalgrass plant response rating” value ([2]; Rate 125 g/ha, Postemergence) was 9 and the “Plant response rating, B. signalgrass” value ([2]; Rate 125 g/ha, Preemergence) was 9. The “Plant response rating, B. signalgrass” value ([2]; Rate 250 g/ha, Postemergence) was 9, the “Plant response rating, B. signalgrass” value ([2]; Rate 250 g/ha, Preemergence) was 9 and the “Plant response rating, B. signalgrass” value ([2]; Rate 500 g/ha, Postemergence) was 8. The “Plant response rating, B. signalgrass” value ([2]; Rate 500 g/ha, Preemergence) was 10, the “Plant response rating, Cocklebur” value [3, 13] was 0 and the “Cocklebur plant response rating” value ([3]; Rate 62 g/ha, Postemergence) was 9. For the same compound, the “Cocklebur plant response rating” value ([3]; Rate 125 g/ha, Postemergence) was 9, the “Plant response rating, Cocklebur” value ([3]; Rate 125 g/ha, Preemergence) was 1 and the “Plant response rating, Cocklebur” value ([3]; Rate 250 g/ha, Postemergence) was 9. For the same compound, the “Plant response rating, Cocklebur” value ([3]; Rate 250 g/ha, Preemergence) was 7, the “Plant response rating, Cocklebur” value ([3]; Rate 500 g/ha, Postemergence) was 8 and the “Plant response rating, Corn” value (corn (Zea mays); [13]) was 1. For the same compound, the “Corn plant response rating” value (corn (Zea mays); Rate 62 g/ha, Postemergence) was 2, the “Corn plant response rating” value (corn (Zea mays); Rate 125 g/ha, Postemergence) was 3 and the “Plant response rating, Corn” value (corn (Zea mays); Rate 125 g/ha, Preemergence) was 1. The “Plant response rating, Corn” value (corn (Zea mays); Rate 250 g/ha, Postemergence) was 3, the “Plant response rating, Corn” value (corn (Zea mays); Rate 250 g/ha, Preemergence) was 2 and the “Plant response rating, Corn” value (corn (Zea mays); Rate 500 g/ha, Postemergence) was 3. The “Plant response rating, Corn” value (corn (Zea mays); Rate 500 g/ha, Preemergence) was 2, the “Plant response rating, Giant foxtail” value [4, 13] was 10 and the “Giant foxtail plant response rating” value ([4]; Rate 62 g/ha, Postemergence) was 6. For the same compound, the “Giant foxtail plant response rating” value ([4]; Rate 125 g/ha, Postemergence) was 8, the “Plant response rating, Giant foxtail” value ([4]; Rate 125 g/ha, Preemergence) was 10 and the “Plant response rating, Giant foxtail” value ([4]; Rate 250 g/ha, Postemergence) was 9. The “Plant response rating, Giant foxtail” value ([4]; Rate 250 g/ha, Preemergence) was 10, the “Plant response rating, Giant foxtail” value ([4]; Rate 500 g/ha, Postemergence) was 9 and the “Plant response rating, Giant foxtail” value ([4]; Rate 500 g/ha, Preemergence) was 10. The “Plant response rating, Morningglory” value [5, 13] was 3, the “Morningglory plant response rating” value ([5]; Rate 62 g/ha, Postemergence) was 9 and the “Morningglory plant response rating” value ([5]; Rate 125 g/ha, Postemergence) was 9. For the same compound, the “Plant response rating, Morningglory” value ([5]; Rate 125 g/ha, Preemergence) was 9, the “Plant response rating, Morningglory” value ([5]; Rate 250 g/ha, Postemergence) was 9 and the “Plant response rating, Morningglory” value ([5]; Rate 250 g/ha, Preemergence) was 9. The “Plant response rating, Morningglory” value ([5]; Rate 500 g/ha, Postemergence) was 10, the “Plant response rating, Morningglory” value ([5]; Rate 500 g/ha, Preemergence) was 10 and the “Plant response rating, Redroot pigweed” value [6, 13] was 9. For the same compound, the “Redroot pigweed plant response rating” value ([6]; Rate 62 g/ha, Postemergence) was 9, the “Redroot pigweed plant response rating” value ([6]; Rate 125 g/ha, Postemergence) was 9 and the “Plant response rating, Redroot pigweed” value ([6]; Rate 125 g/ha, Preemergence) was 10. For the same compound, the “Plant response rating, Redroot pigweed” value ([6]; Rate 250 g/ha, Postemergence) was 10, the “Plant response rating, Redroot pigweed” value ([6]; Rate 250 g/ha, Preemergence) was 10 and the “Plant response rating, Redroot pigweed” value ([6]; Rate 500 g/ha, Postemergence) was 10. The “Plant response rating, Redroot pigweed” value ([6]; Rate 500 g/ha, Preemergence) was 10, the “Plant response rating, Rape” value (rape (Brassica napus); [13]) was 2 and the “Rape plant response rating” value (rape (Brassica napus); Rate 62 g/ha, Postemergence) was 10. For the same compound, the “Rape plant response rating” value (rape (Brassica napus); Rate 125 g/ha, Postemergence) was 10, the “Plant response rating, Rape” value (rape (Brassica napus); Rate 125 g/ha, Preemergence) was 6 and the “Plant response rating, Rape” value (rape (Brassica napus); Rate 250 g/ha, Postemergence) was 10. For the same compound, the “Plant response rating, Rape” value (rape (Brassica napus); Rate 250 g/ha, Preemergence) was 6, the “Plant response rating, Rape” value (rape (Brassica napus); Rate 500 g/ha, Postemergence) was 10 and the “Plant response rating, Rape” value (rape (Brassica napus); Rate 500 g/ha, Preemergence) was 10. For the same compound, the “Plant response rating, Sugarbeets” value [7, 13] was 9, the “Sugarbeets plant response rating” value ([7]; Rate 62 g/ha, Postemergence) was 10 and the “Sugarbeets plant response rating” value ([7]; Rate 125 g/ha, Postemergence) was 10. The “Plant response rating, Sugarbeets” value ([7]; Rate 125 g/ha, Preemergence) was 9, the “Plant response rating, Sugarbeets” value ([7]; Rate 250 g/ha, Postemergence) was 9 and the “Plant response rating, Sugarbeets” value ([7]; Rate 250 g/ha, Preemergence) was 10. For the same compound, the “Plant response rating, Sugarbeets” value ([7]; Rate 500 g/ha, Postemergence) was 9, the “Plant response rating, Sugarbeets” value ([7]; Rate 500 g/ha, Preemergence) was 10 and the “Plant response rating, Velvetleaf” value [8, 13] was 2. The “Velvetleaf plant response rating” value ([8]; Rate 62 g/ha, Postemergence) was 9, the “Velvetleaf plant response rating” value ([8]; Rate 125 g/ha, Postemergence) was 9 and the “Plant response rating, Velvetleaf” value ([8]; Rate 125 g/ha, Preemergence) was 4. For the same compound, the “Plant response rating, Velvetleaf” value ([8]; Rate 250 g/ha, Postemergence) was 9, the “Plant response rating, Velvetleaf” value ([8]; Rate 250 g/ha, Preemergence) was 7 and the “Plant response rating, Velvetleaf” value ([8]; Rate 500 g/ha, Postemergence) was 10. For the same compound, the “Plant response rating, Velvetleaf” value ([8]; Rate 500 g/ha, Preemergence) was 8, the “Plant response rating, Wheat” value [9, 13] was 2 and the “Wheat plant response rating” value ([9]; Rate 62 g/ha, Postemergence) was 4. The “Wheat plant response rating” value ([9]; Rate 125 g/ha, Postemergence) was 4, the “Plant response rating, Wheat” value ([9]; Rate 125 g/ha, Preemergence) was 4 and the “Plant response rating, Wheat” value ([9]; Rate 250 g/ha, Postemergence) was 5. The “Plant response rating, Wheat” value ([9]; Rate 250 g/ha, Preemergence) was 7, the “Plant response rating, Wheat” value ([9]; Rate 500 g/ha, Postemergence) was 6 and the “Plant response rating, Wheat” value ([9]; Rate 500 g/ha, Preemergence) was 9. For the same compound, the “Barnyardgrass plant response rating” value [10, 14] was 4, the “Barnyardgrass plant response rating” value [10, 15] was 5 and the “Plant response rating, Barnyardgrass” value ([10]; Rate 250 g/ha) was 6. The “Plant response rating, Barnyardgrass” value ([10]; Rate 500 g/ha) was 4, the “Ducksalad plant response rating” value [11, 14] was 1 and the “Ducksalad plant response rating” value [11, 15] was 1. The “Plant response rating, Ducksalad” value ([11]; Rate 250 g/ha) was 2, the “Plant response rating, Ducksalad” value ([11]; Rate 500 g/ha) was 3 and the “Rice plant response rating” value (rice (Oryza sativa); [14]) was 5. For the same compound, the “Rice plant response rating” value (rice (Oryza sativa); [15]) was 5, the “Plant response rating, Rice” value (rice (Oryza sativa); Rate 250 g/ha) was 6 and the “Plant response rating, Rice” value (rice (Oryza sativa); Rate 500 g/ha) was 3. The “S. Flatsedge plant response rating” value [12, 14] was 3, the “S. Flatsedge plant response rating” value [12, 15] was 3 and the “Plant response rating, S. Flatsedge” value ([12]; Rate 250 g/ha) was 6. The “Plant response rating, S. Flatsedge” value ([12]; Rate 500 g/ha) was 3.
